Experimental data from paper PMC7351026, “Serum Half-Lives for Short- and Long-Chain Perfluoroalkyl Acids after Ceasing Exposure from Drinking Water Contaminated by Firefighting Foam” (Environmental Health Perspectives, 2020).
Like-named read-outs stand apart in the source and are kept apart here.

Key:
[1] = set-up: method as in Zhang et al. 2015; conditions: ref Zhang et al. 2015, cited from earlier work
[2] = Urine/serum ratio in paired samples; type: in vivo, human; conditions: mean of four paired samplings per subject, 17 airport employees
Experimental: Urinary PFAS concentrations were specific-gravity adjusted. The ratio of urine and serum concentration for each PFAS (urine/serum ratio) at each sampling was calculated based on PFAS concentrations in paired serum and urine samples from 17 employees. Then the personal average urine/serum ratio was calculated using the mean value of repeated samplings for each employee.

[3] = Population average serum elimination rate and half-life (linear mixed model, one compartment, first-order)
Experimental: Serum PFAS concentrations were log-transformed. Time was calculated as the elapsed days between supply of clean bottled water and […] blood sampling. We assumed one compartment, first-order elimination kinetics. In this kinetic model, the body is considered as one homogeneous volume in which mixing is instantaneous and from which PFAS could be absorbed, transferred, and eliminated according to the rate of elimination that is proportional to the concentration of PFAS in the body. Two methods were used to estimate serum elimination rate constant (k) and half-life for each PFAS:
Briefly, in the linear mixed model In Cij=αi+tijβ+Xiβ′+εij, Cij is the serum concentration of PFAS for individual i at sampling round j; αi is the subject-specific intercept (random intercept); tij is the time; β is the average slope; Xi is a vector of fixed covariates for individual i; β′ stands for the fixed effect coefficients; and εij is the random error term. We modified the model by excluding the subject-specific slope (random slope) due to a failure to converge after inclusion, which may be due to the limited number of study subjects. The negative value of the average slope ( −β ) is the population average k, and average half-life is calculated as ln2/k .
In the linear mixed model, we included only age and sex as covariates. We based covariate selection on factors that could conceivably confound the PFAS half-life estimation. Working task, duration of employment, number of glasses of water per day, blood donation, and pregnancy before mitigation of PFAS exposure from drinking water can influence the initial serum levels but would not be expected to influence the PFAS half-life.
A sensitivity analysis was performed using the same linear mixed model but with Cij as the serum levels after subtracting general background levels (using the median levels obtained from the nonexposed reference population). If the serum PFAS levels after subtraction were lower than the half of the background levels, they were replaced with half of the background levels.

[4] = general Swedish population (Ronneby, 106 Swedes) with high exposure through drinking water, 2 y follow-up from 6 months after clean water; ref Li et al. 2018; cited from earlier work
[5] = PFAS levels in serum samples of airport employees (LC/MS/MS); conditions: all the serum samples, although elevated in the drinking water
Excerpt: All 26 employees at the airport were invited for a blood sampling between 11 and 14 September 2018 (i.e., within 11 to 14 d after the termination of contaminated drinking-water exposure). Information on age, home address, employment history, working tasks, and sick leave and vacation days in August and September were collected by questionnaire. In addition, data on the number of glasses of water consumed per day, local fish consumption, and history of blood donation and medication were collected. For female employees, questions about menstruation, pregnancy, and duration of breast-feeding were asked.
The PFAS analysis in serum from the first sampling was immediately performed and personal results were reported to the employees. […] These 17 employees submitted four rounds of blood and first morning urine samples in parallel, at 1-month intervals. In total, there were five rounds of serum sampling (started from September) and four rounds of urine sampling (from October). For modeling of elimination, all samples were reanalyzed in a single batch. We obtained 83 serum samples with a median count of 5 (range: 4–5) samples per employee, and 59 urine samples with median of 4 (range: 1–4) samples per employee. Only one employee provided a single urine sample. The study was approved by the Regional Ethical Review Board in Lund, Sweden. All employees provided written informed consent.
Venous whole blood samples were obtained and were centrifuged for 10 min at 1,500×g at room temperature to isolate the serum on site. The serum samples were collected in 6-mL BD Vacutainer® Plus plastic serum tubes without gel (BD). Urine samples were collected in 13-mL polypropylene screw cap tubes (Sarstedt). Serum and urine samples were frozen at −20°C after sampling and transported to Lund using cold chain logistics. Serum and urine samples were stored at −80°C and −20°C , respectively, before analysis.
The serum samples, QC samples, and chemical blanks were prepared in 96-well plates with 1.5-mL flat-bottom glass vials (Biotech solutions). Serum samples were thawed for 1–2 h and mixed on a vortex shaker for approximately 10 s two times. Once after all samples were thawed and a second time before pipetting the serum to the plate. Before pipetting, the tip was pre-wetted several times, drawing a volume into the tip and dispensing it back into the tube. Sample preparation procedures for serum samples consisted of 25μL serum mixed with 25μL water, 25μL methanol, 25μL isotopically labeled internal standards in 50% acetonitrile (see Table S1), and 100μL acetonitrile. Thereafter, samples were mixed vigorous by shaking for 30 min and centrifuged at 2,600×g for 10 min at room temperature. The supernatant ( 0.2mL ) was transferred to 96-well plates with 0.5-mL conical glass vials (MicroLiter Analytical Supplies) and again centrifuged at 3,000×g for 10 min before analysis. The QC samples and chemical blanks were prepared following the same procedure as the serum samples. The calibration standards were prepared in FBS the same way as the samples, except for the addition of diluted reference standards of all analyzed compounds in 25μL of the methanol solution.
Aliquots of 4μL of the sample were analyzed using LC/MS/MS. For the analysis, a C18 column ( 4μm , 2.1mm i.d.×50mm , Genesis Lightning) was used prior to the injector to filter the mobile phases. The analytical column was an Aquity BEH ( 1.7μm , 2.1mm i.d.×100mm Waters). The mobile phases (A and B) were A: 5 mM ammonium acetate in water:methanol (50:50); and B: methanol. The mobile phase was kept at 0% B for 2.5 min after injection. A gradient was then applied over 11 min to 90% B, where it was then kept for 1.5 min. The column was then conditioned at 0% B for 2 min.

O=S(=O)(O)C(F)(F)C(F)(F)C(F)(F)C(F)(F)C(F)(F)C(F)(F)C(F)(F)C(F)(F)F [PFOS, perfluorooctane sulfonic acid]
Urine/serum ratio ([1]; nonpregnant women): 0.013
Urine/serum ratio ([1]; pregnant women): 0.0004
Personal average urine/serum ratio, median (range) [2]: 0.00092
Average half-life longer than that of the PFCA with same number of carbon atoms ([3]; PFHpS vs PFHpA, PFOS vs PFOA): ~1.2 y
Average serum half-life ([3]; population average, linear mixed model with original serum levels, 17 airport employees after end of drinking-water exposure): 2.9 y
Average half-life [4]: 3.4 y

O=C(O)C(F)(F)C(F)(F)C(F)(F)C(F)(F)F [PFPeA, perfluoropentanoic acid]
Level in serum samples [5]: below LOD
